The source made the active and inactive calls. No cut-off for these calls is given here. Non-standard residues stand in square brackets, D forms with d. Residues, ends and D or L forms follow the SMILES beside them. Aad = N[C@@H](CCCC(=O)O)C(=O)O
How the values were obtained:
[1] = Toxicity in female Balb/c mouse implanted with mouse 4T1 cells assessed as pathological changes in heart at 12 micromol/kg, ip administered every other day for 2 weeks by H and E staining based analysis; type: organism-based; conditions: in vivo, 336 h, dose 12 µmol/kg
Cell membrane [2] = assay: Induction of cell membrane damage in human MCF7 cells assessed as protein leakage at 1 to 2 times IC50 measured after 0.5 to 6 hrs by UV based analysis; type: cell membranes; conditions: time 0.5-6 hrs
[3] = Drug uptake in human MCF7 cells at 5 uM incubated for 1 hr by laser confocal scanning microscopic analysis; type: ADME, cell-based; conditions: mcf7, 1 h
Cell membrane [4] = assay: Induction of morphological changes in cell membrane of human MCF7 cells assessed as intracellular outflow at 1 times IC50 incubated for 1 hr by SEM analysis; type: cell membranes
MCF7 [5] = assay: Induction of cell cycle arrest at G0/G1 phase in human MCF7 cells at 1 times IC50 measured after 24 hrs by PI/RNase staining based flow cytometry analysis; type: functional
MCF7 [6] = assay: Antimigratory activity in human MCF7 cells assessed as reduction in cell migration at 1 times IC50 measured after 24 hrs by scratch-wound healing assay; type: functional, cell-based
MCF7 [7] = assay: Induction of apoptosis in human MCF7 cells assessed as increase in intracellular ROS generation at 1 times IC50 measured after 0 to 360 mins by DCFH-DA staining based analysis; type: functional, cell-based; conditions: time 0-360 min
[8] = Stability in mouse serum assessed as compound remaining at 10 mM incubated for 6 hrs by RP-HPLC analysis; type: ADME, cell-free; conditions: read-out: Stability
[9] = Toxicity in female Balb/c mouse implanted with mouse 4T1 cells assessed as pathological changes in liver at 12 micromol/kg, ip administered every other day for 2 weeks by H and E staining based analysis; type: organism-based; conditions: in vivo, 336 h, dose 12 µmol/kg
[10] = Acute toxicity in female Balb/c mouse assessed as lung damage at approximately LD50 administered as single ip dose by H and E staining based analysis; type: organism-based; conditions: in vivo
HeLa = assay: Cytotoxicity against human HeLa cells assessed as inhibition of cell growth incubated for 1 hr by MTT assay; type: functional, cell-based
Cell membrane [11] = assay: Induction of cell membrane damage in human MCF7 cells assessed as nucleic acid leakage at 1 to 2 times IC50 measured after 0.5 to 6 hrs by UV based analysis; type: cell membranes; conditions: time 0.5-6 hrs
[12] = Drug uptake in HK-2 cells at 5 uM incubated for 1 hr by laser confocal scanning microscopic analysis; type: ADME, cell-based; conditions: human, hk-2, 1 h
MCF7 [13] = assay: Effect on cell cycle progression in human MCF7 cells at 1 times IC50 measured after 1 hr by PI/RNase staining based flow cytometry analysis; type: functional
[14] = Therapeutic index, ratio of HC10 for mouse RBC to IC50 for cytotoxicity against RG cells (unknown origin); type: toxicity, cell-based; conditions: mouse RBC and RG cells, read-out: TI
A549 = assay: Cytotoxicity against human A549 cells assessed as inhibition of cell growth incubated for 1 hr by MTT assay; type: functional, cell-based; conditions: A549, 1 h
[15] = Acute toxicity in female Balb/c mouse assessed as cellular swelling in spleen at approximately LD50 administered as single ip dose by H and E staining based analysis; type: organism-based; conditions: in vivo
[16] = Therapeutic index, ratio of HC10 for mouse RBC to IC50 for cytotoxicity against human A549 cells; type: toxicity, cell-based; conditions: mouse RBC and A549 cells, read-out: TI
MCF7 [17] = assay: Anti-invasion activity in human MCF7 cells assessed as reduction in number of passing cells on polycarbonate membrane at 1 times IC50 measured after 24 hrs by crystal violet staining based transwell assay; type: functional, cell-based
MCF7 [18] = assay: Induction of apoptosis in human MCF7 cells assessed as early apoptotic cells at 1 times IC50 measured after 24 hrs by Annexin V-FITC staining based flow cytometry analysis (reference value: 0.014%); type: functional
MCF7 [19] = assay: Cytotoxicity against human MCF7 cells assessed as cell death at 1 times IC50 measured within 30 mins by MTT assay relative to control; type: functional; conditions: 0.5 h
[20] = Toxicity in female Balb/c mouse implanted with mouse 4T1 cells assessed as animal death at 12 micromol/kg, ip administered every other day for 2 weeks; type: organism-based; conditions: in vivo, 336 h, dose 12 µmol/kg
[21] = Acute toxicity in female Balb/c mouse assessed as cellular swelling in liver at approximately LD50 administered as single ip dose by H and E staining based analysis; type: organism-based; conditions: in vivo
[22] = Therapeutic index, ratio of HC10 for mouse RBC to IC50 for cytotoxicity against human MCF7 cells; type: toxicity, cell-based; conditions: mouse RBC and MCF7 cells, read-out: TI
[23] = Toxicity in female Balb/c mouse implanted with mouse 4T1 cells assessed as pathological changes in spleen at 12 micromol/kg, ip administered every other day for 2 weeks by H and E staining based analysis; type: organism-based; conditions: in vivo, 336 h, dose 12 µmol/kg
Cell membrane [24] = assay: Induction of morphological changes in cell membrane of human MCF7 cells assessed as membrane damage at 1 times IC50 incubated for 1 hr by SEM analysis; type: cell membranes
Cell membrane [25] = assay: Disruption of cell membrane integrity in human MCF7 cells assessed as increase in PI fluorescence at 2 times IC50 measured after 0 to 120 mins by laser confocal scanning microscopic analysis; type: cell membranes; conditions: time 0-120 min
[26] = Toxicity in female Balb/c mouse implanted with mouse 4T1 cells assessed as reduction in body weight at 12 micromol/kg, ip administered every other day for 2 weeks and measured every 2 days; type: organism-based; conditions: in vivo, 336 h, dose 12 µmol/kg
[27] = Acute toxicity in female Balb/c mouse assessed as heart damage at approximately LD50 administered as single ip dose by H and E staining based analysis; type: organism-based; conditions: in vivo
[28] = Stability in mouse serum assessed as half life at 10 mM incubated for 12 hrs by RP-HPLC analysis; type: ADME, cell-free
4T1 [29] = assay: Antitumor activity against mouse 4T1 cells implanted in female Balb/c mouse assessed as reduction in tumor weight at 12 micromol/kg, ip administered every other day for 2 weeks and measured every 2 days relative to control; type: functional; parameters: scale not given: the % may be the effect or the level left; conditions: dose 12 µmol/kg
4T1 [30] = assay: Antitumor activity against mouse 4T1 cells implanted in female Balb/c mouse assessed as increase in tumor cell apoptosis at 12 micromol/kg, ip administered every other day for 2 weeks by H and E staining based analysis; type: functional, organism-based; conditions: dose 12.0 µmol/kg
Cell membrane [31] = assay: Induction of morphological changes in cell membrane of human MCF7 cells assessed as cell depression at 1 times IC50 incubated for 1 hr by SEM analysis; type: cell membranes
MCF7 [32] = assay: Cytotoxicity against human MCF7 cells assessed as cell viability at 2 times IC50 measured for 30 mins by MTT assay relative to control; type: functional; conditions: 0.5 h
[33] = Therapeutic index, ratio of HC10 for mouse RBC to IC50 for cytotoxicity against human HeLa cells; type: toxicity, cell-based; conditions: mouse RBC and HeLa cells, read-out: TI
[34] = Cytotoxicity against HK-2 cells assessed as inhibition of cell growth incubated for 1 hr by MTT assay; type: toxicity, cell-based; conditions: human
Cell membrane [35] = assay: Disruption of cell membrane in human MCF7 cells assessed as LDH release at 2.5 to 40 uM incubated for 1 hr by fluorescence based microplate reader analysis; type: cell membranes; conditions: dose 2.5-40 µM
MCF7 [36] = assay: Induction of apoptosis in human MCF7 cells assessed as dead cells at 1 times IC50 measured after 24 hrs by Annexin V-FITC staining based flow cytometry analysis (reference value: 6.41%); type: functional
[37] = Cytotoxicity against RG cells (unknown origin) assessed as inhibition of cell growth incubated for 1 hr by MTT assay; type: functional, cell-based

Row | Compound | Activity [1] | Activity (Cell membrane [2]) | Drug uptake [3] | Activity (Cell membrane [4]) | Activity (MCF7 [5]) | Activity (MCF7 [6]) | Activity (MCF7 [7]) | remaining at 6 h, 10000 µM [8] [%] | Activity [9] | Activity [10] | IC50 (HeLa) [µM] | Activity (Cell membrane [11]) | Drug uptake [12] | Activity (MCF7 [13]) | selectivity ratio [14] | IC50 (A549) [µM] | Activity [15] | selectivity ratio [16] | Activity (MCF7 [17]) | Activity (MCF7 [18]) [%] | other results
1 | CC(C)C[C@H](NC(=O)[C@H](CC(C)C)NC(=O)[C@H](CCCCN)NC(=O)[C@H](CCCCN)NC(=O)[C@H](CC(C)C)NC(=O)[C@H](CC(C)C)NC(=O)[C@H](CCCCN)NC(=O)[C@H](CCCCN)NC(=O)[C@H](CC(C)C)NC(=O)[C@H](CC(C)C)NC(=O)[C@H](CCCCN)NC(=O)[C@H](CCCCN)NC(=O)[C@H](CC(C)C)NC(=O)[C@@H](N)CC(C)C)C(N)=O (H-LLKKLLKKLLKKLL-NH2) | Non-Toxic | Active | Active | Active | Active | Active | Active | > 60 | Non-Toxic | Non-Toxic | 5.91 | Active | Active | inactive | 1.69 | 3.65 | Toxic | 2.96 | Active | 18.9 | Activity (MCF7 [19]): ~50%; Activity [20]: Non-Toxic; Activity [21]: Toxic; selectivity ratio [22]: 2.27; Activity [23]: Non-Toxic; Activity (Cell membrane [24]): Active; Activity (Cell membrane [25]): Active; Activity [26]: Non-Toxic; Activity [27]: Non-Toxic; half-life at 10000 µM [28]: 11.1 h; Activity (4T1 [29]): 28.4%; Activity (4T1 [30]): Active; Activity (Cell membrane [31]): Active; Activity (MCF7 [32]): ~30%; selectivity ratio [33]: 1.83; IC50 at 1 h [34]: 5.4 µM; Activity (Cell membrane [35]): Active; Activity (MCF7 [36]): 3.79%; IC50 [37]: 6.41 µM
2 | CC(C)C[C@H](NC(=O)[C@H](CCCCN)NC(=O)[C@H](CCCCN)NC(=O)[C@H](CC(C)C)NC(=O)[C@H](CC(C)C)NC(=O)[C@H](CCCCN)NC(=O)[C@H](CCCCN)NC(=O)[C@H](CC(C)C)NC(=O)[C@H](CC(C)C)NC(=O)[C@H](CCCCN)NC(=O)[C@H](CCCCN)NC(=O)[C@H](CC(C)C)NC(=O)[C@@H](N)CC(C)C)C(=O)N[C@@H](CCCC(=O)O)C(N)=O (H-LLKKLLKKLLKKL[Aad]-NH2) | Non-Toxic | Active | Active | Active | Active | Active | Active | > 60 | Non-Toxic | Non-Toxic | 7.15 | Active | Not Active | inactive | 12.7 | 10.3 | Toxic | 24.9 | Active | 25.9 | Activity (MCF7 [19]): ~50%; Activity [20]: Non-Toxic; Activity [21]: Toxic; selectivity ratio [22]: 16.3; Activity [23]: Non-Toxic; Activity (Cell membrane [24]): Active; Activity (Cell membrane [25]): Active; Activity [26]: Non-Toxic; Activity [27]: Non-Toxic; half-life at 10000 µM [28]: 7.6 h; Activity (4T1 [29]): 52.4%; Activity (4T1 [30]): Active; Activity (Cell membrane [31]): Active; Activity (MCF7 [32]): ~30%; selectivity ratio [33]: 35.7; IC50 at 1 h [34]: 38.7 µM; Activity (Cell membrane [35]): Active; Activity (MCF7 [36]): 4.4%; IC50 [37]: 20.1 µM
3 | CC(C)C[C@H](NC(=O)[C@H](CCCCN)NC(=O)[C@H](CCCCN)NC(=O)[C@H](CC(C)C)NC(=O)[C@H](CC(C)C)NC(=O)[C@H](CCCCN)NC(=O)[C@H](CCCCN)NC(=O)[C@H](CC(C)C)NC(=O)[C@H](CC(C)C)NC(=O)[C@H](CCCCN)NC(=O)[C@H](CCCCN)NC(=O)[C@H](CC(C)C)NC(=O)[C@@H](N)CC(C)C)C(=O)N[C@@H](CCC(=O)O)C(N)=O (H-LLKKLLKKLLKKLE-NH2) | Non-Toxic | Active | Active | Active | Active | Active | Active | > 60 | Non-Toxic | Non-Toxic | 9.46 | Active | Not Active | inactive | 14.2 | 14.4 | Toxic | 21.1 | Active | 18 | Activity (MCF7 [19]): ~50%; Activity [20]: Non-Toxic; Activity [21]: Toxic; selectivity ratio [22]: 14.2; Activity [23]: Non-Toxic; Activity (Cell membrane [24]): Active; Activity (Cell membrane [25]): Active; Activity [26]: Non-Toxic; Activity [27]: Non-Toxic; half-life at 10000 µM [28]: 7.78 h; Activity (4T1 [29]): 33.4%; Activity (4T1 [30]): Active; Activity (Cell membrane [31]): Active; Activity (MCF7 [32]): ~30%; selectivity ratio [33]: 32.1; IC50 at 1 h [34]: 59.3 µM; Activity (Cell membrane [35]): Active; Activity (MCF7 [36]): 5.69%; IC50 [37]: 21.3 µM
